{
  "source": "patent US20080045495A1",
  "about": "“Treatment of Patients with Cystic Disease by Alteration of Fibrocystin Proteolysis” (BOARD OF REGENTS, THE UNIVERSITY OF TEXAS SYSTEM, priority 2006, published 2008)",
  "key": {"[1]": {"tested_on": "fibrocystin cleavage in HEK-293 cells", "assay": "Luciferase reporter assay of fibrocystin cleavage (pFC-GV / pG5-luc) in HEK-293 cells", "assay_type": "cell-based, human", "conditions": "5 mM caffeine versus vehicle, HEK-293, 12 hours, FIG. 4D", "method": "(§1) Reporter Gene Assays—mIMCD-3 cells, HEK-293 cells, or HeLa cells were plated in 6-well dishes (3×10^5 cells/well) and cotransfected with 0.05 μg phRL-TK(Int−) encoding Renilla luciferase (Promega, Madison, Wis.), 0.1 μg Photinus luciferase reporter plasmids, and 0.01-0.3 μg effector plasmids. Luciferase assays were performed as described previously (Hiesberger, 2004). Relative luciferase activity was calculated as the ratio of Photinus and Renilla luciferase.\n(§2) FIG. 4 A is an image of a gel illustrating mIMCD3/FC cells were grown for 4 days and incubated with 0.1 μM thapsigargin (lane 2), 5 mM caffeine (lane 3), 75 μM dantrolene (lane 5), 200 μM ruthenium red (lane 7), or no additions (lanes 1, 4 and 6). After 2 hours, media were replaced with media lacking serum but containing the same supplements, and, in addition, 10 nM mifeprisone. Cell lysates were prepared after 24 hours and analyzed by immunoblotting using anti-V5 antibody. FIG. 4B is a graph of mIMCD-3 cells were transfected with 0.2 μg pG5-luc and either 0.2 μg pFC-GV or 0.2 μg pLDLR-GV. After 24 hours, cells were incubated in serum-free media in the presence or absence of 75 μM dantrolene. Relative luciferase activity was determined after 48 h. Data presented are mean ±SE of three separate transfections. The fibrocystin/Gal4-VP16 fusion protein is shown schematically below. Shaded box indicates the transmembrane segment; filled boxes indicate the N-terminal signal sequence and the C-terminal Gal4-VP16 fusion protein. FIG. 4C is an image of a gel illustrating HEK-293 cells transfected with 6 μg pFC-V5, and 8 hours later incubated in serum-free media containing 1-8 mM caffeine, 0.5 μM calphostin, or no additions. Cells were lysed after 16 h, and extracts were analyzed by immunoblotting using anti-V5 antibody. FIG. 4D is a graph of HEK-293 cells transfected with 0.2 μg pFC-GV and 0.2 μg pG5-luc. After 24 hours, cells were incubated in serum-free media containing 5 mM caffeine or no additions. Luciferase activity was measured after 12 hours. Data presented are mean ±SE of three separate transfections. FIG. 4E is an image of a gel illustrating HEK-293 cells stably expressing the m3 muscarinic receptor (lanes 1-4) and untransfected HEK-293 cells (lanes 5-8) were transfected with 6 μg pFC-V5. […] Cells were lysed after 16 hours, and extracts were analyzed by immunoblotting using anti-V5 antibody.\nTo quantitatively measure fibrocystin cleavage, a luciferase assay was developed that was similar to the ones employed to quantify the proteolytic cleavage of amyloid precursor protein (APP) and low density lipoprotein receptor related protein-1 (LRP1) (Cao, 2001; May, 2003). A plasmid (FC-GV) encoding the synthetic transcription factor Gal4-VP16 fused to the C-terminus of fibrocystin was generated. Proteolytic cleavage of the fibrocystin fusion protein releases Gal4-VP16, which translocates to the nucleus and activates a Gal4-responsive luciferase reporter gene (pG5-luc). Therefore, luciferase expression correlates with fibrocystin cleavage.\nTo quantify fibrocystin proteolysis in response to intracellular Ca^2+ release, the luciferase reporter assay was employed. HEK-293 cells were cotransfected with the plasmids pFC-GV and pG5-luc and incubated with either 5 mM caffeine or vehicle (as a control).\nFIG. 5A is an image of a gel that illustrates HEK-293 cells were transfected with 6 μg pFC-V5."}, "[2]": {"tested_on": "fibrocystin cleavage in HEK-293 cells", "assay": "Immunoblot (anti-V5) of fibrocystin proteolysis in HEK-293 cells transfected with pFC-V5", "assay_type": "cell-based, human", "method": "as §2\nFIG. 5A is an image of a gel that illustrates HEK-293 cells were transfected with 6 μg pFC-V5. […] Fourteen hours later, cellular proteins were extracted and analyzed by immunoblotting using anti-V5 antibody. FIG. 5B is an image of a gel mIMCD3/FC cells were grown for 4 days, and expression of fibrocystin was induced by addition of 10 nM mifepristone. After 24 hours, media were supplemented with 0.1, 0.5, or 1 μM calphostin C. Thirty hours later, cells were harvested, and proteins were analyzed by immunoblotting using anti-V5 antibody. FIG. 5C is an image of a gel illustrating HEK-293 cells were transfected with 3 μg pFC-V5 and either 3 μg of the empty vector pEF-neo (lanes 1 and 3) or 3 μg pEF-PKCαA/E (lanes 2 and 4). After 12 hours media were changed to media containing 10% FCS (lanes 1 and 2) or 0.2% BSA (lanes 3 and 4). Forty-eight hours later, cells were harvested, and proteins were subjected to immunoblotting using anti-V5 antibody. FIG. 5D is a plot illustrating HEK-293 cells transfected with 0.2 μg pG5-luc and 0.2 μg pFC-GV, pLDLR-GV and/or pEF-PKCαA/E. After 16 hours, media were changed to serum-free media containing 100 nM PMA or 500 μM Br-cAMP. Twenty-four hours later, cells were harvested, and relative luciferase activities were determined. Data are the mean ±SE of three independent transfections."}, "[3]": {"tested_on": "fibrocystin cleavage in HEK-293(m3) cells", "method": "as §2, with “FIG. 4C is an image of a gel illustrating HEK-293 cells transfected with 6 μg pFC-V5, and 8 hours later incubated in serum-free media containing 1-8 mM caffeine, 0.5 μM calphostin, or no additions.” left out, “FIG. 4D is a graph of HEK-293 cells transfected with 0.2 μg pFC-GV and 0.2 μg pG5-luc. After 24 hours, cells were incubated in serum-free media containing 5 mM caffeine or no additions.” left out, “hours.” for “hours. Data presented are mean ±SE of three separate transfections. FIG. 4E is an image of a gel illustrating HEK-293 cells stably expressing the m3 muscarinic receptor (lanes 1-4) and untransfected HEK-293 cells (lanes 5-8) were transfected with 6 μg pFC-V5.”"}, "[4]": {"tested_on": "fibrocystin cleavage in mIMCD3/FC cells", "assay": "Immunoblot (anti-V5) of fibrocystin proteolytic fragments in mIMCD3/FC cells", "assay_type": "cell-based, human", "conditions": "FIG. 4A", "method": "Cell Culture, Transfection and Generation of Stable Cell Lines—mIMCD-3 cells were plated at a density of 500,000 cells/100 mm dish, and 24 hours and 48 hours later the cells were transfected with 2 μg of pFC-V5 using Effectene (Qiagen, Valencia, Calif.). Cells were incubated for an additional 72 hours and lysed in 100 μl buffer containing Tris-buffered saline, 0.5% Triton X-100, protease inhibitor cocktail (Hoffmann-La Roche Inc., Indianapolis, Ind.). Twenty μl of the lysates were analyzed by SDS-PAGE, and immunoblot analysis was performed using HRP-conjugated anti-V5 as described previously (Hiesberger, 2005). mIMCD3/FC and mIMCD3/EGFP cell lines with inducible expression of fibrocystin and EGFP, respectively, were produced by transfecting mIMCD-3 cells with 1.5 μg pSwitch and either 1.5 μg pGeneFC or 1.5 μg pGeneEGFP. Stable transfectants were isolated after 14 days of growth in media containing hygromycin (350 μg/ml) and zeocin (300 μg/ml). To test for inducible expression, cells derived from individual clones were treated with mifepristone (10 nM) for 48 h or left untreated, and proteins were analyzed by immunoblotting using HRP-conjugated anti-FLAG. HEK-293 cells stably transfected with the muscarinic acetylcholine receptor M3 were a generous gift from Trevor Shuttleworth (University of Rochester Medical center) (Yang, 1995).\nTo further investigate the proteolytic cleavage of fibrocystin, mIMCD3/FC cells were generated, in which the expression of recombinant human fibrocystin can be induced by treatment with mifepristone.\nFIG. 4 A is an image of a gel illustrating mIMCD3/FC cells were grown for 4 days and incubated with 0.1 μM thapsigargin (lane 2), 5 mM caffeine (lane 3), 75 μM dantrolene (lane 5), 200 μM ruthenium red (lane 7), or no additions (lanes 1, 4 and 6). After 2 hours, media were replaced with media lacking serum but containing the same supplements, and, in addition, 10 nM mifeprisone. Cell lysates were prepared after 24 hours and analyzed by immunoblotting using anti-V5 antibody. FIG. 4B is a graph of mIMCD-3 cells were transfected with 0.2 μg pG5-luc and either 0.2 μg pFC-GV or 0.2 μg pLDLR-GV. After 24 hours, cells were incubated in serum-free media in the presence or absence of 75 μM dantrolene. Relative luciferase activity was determined after 48 h. Data presented are mean ±SE of three separate transfections. The fibrocystin/Gal4-VP16 fusion protein is shown schematically below. […] Cells were lysed after 16 h, and extracts were analyzed by immunoblotting using anti-V5 antibody. […] Luciferase activity was measured after 12 hours. […] Cells were lysed after 16 hours, and extracts were analyzed by immunoblotting using anti-V5 antibody. […]"}, "[5]": {"tested_on": "fibrocystin cleavage in mIMCD-3 cells", "assay": "Luciferase reporter assay of fibrocystin cleavage (pFC-GV / pG5-luc) in mIMCD-3 cells", "assay_type": "cell-based, human", "conditions": "75 μM dantrolene, serum-free media, luciferase after 48 h, FIG. 4B", "method": "as §1\nFIG. 4 A is an image of a gel illustrating mIMCD3/FC cells were grown for 4 days and incubated with 0.1 μM thapsigargin (lane 2), 5 mM caffeine (lane 3), 75 μM dantrolene (lane 5), 200 μM ruthenium red (lane 7), or no additions (lanes 1, 4 and 6). […] Cell lysates were prepared after 24 hours and analyzed by immunoblotting using anti-V5 antibody. […] Relative luciferase activity was determined after 48 h. […] Cells were lysed after 16 h, and extracts were analyzed by immunoblotting using anti-V5 antibody. […] Luciferase activity was measured after 12 hours. […] Cells were lysed after 16 hours, and extracts were analyzed by immunoblotting using anti-V5 antibody.\nTo quantitatively measure fibrocystin cleavage, a luciferase assay was developed that was similar to the ones employed to quantify the proteolytic cleavage of amyloid precursor protein (APP) and low density lipoprotein receptor related protein-1 (LRP1) (Cao, 2001; May, 2003). […]"}},
  "data": [
    {"compound": "Cn1c(=O)c2c(ncn2C)n(C)c1=O", "note": "[caffeine]", "values": [
      {"measurement": "increase of luciferase activity", "setting": "[1]", "value": 10, "unit": "fold"},
      {"measurement": "fibrocystin proteolysis", "setting": "[2]; 5 mM caffeine, untransfected HEK-293 cells, 16 hours, FIG. 4E", "value": "triggered fibrocystin proteolysis"},
      {"measurement": "proteolysis of fibrocystin", "setting": "[2]; 1-8 mM caffeine, serum-free media, HEK-293, lysed after 16 h, FIG. 4C", "value": "induced dose-dependent proteolysis"},
      {"measurement": "fibrocystin proteolysis", "setting": "[3]", "value": "triggered fibrocystin proteolysis"},
      {"measurement": "generation of FCA", "setting": "[4]; pretreatment with 5 mM caffeine, lysates after 24 hours", "value": "prevented"}
    ]},
    {"compound": "O=C1CN(/N=C/c2ccc(-c3ccc([N+](=O)[O-])cc3)o2)C(O)=N1", "note": "[dantrolene]", "values": [
      {"measurement": "increase in luciferase activity (FC-GV versus LDLR-GV)", "setting": "[5]", "value": "abolished"},
      {"measurement": "formation of FCA", "setting": "[4]; 75 μM dantrolene", "value": "abolished"}
    ]},
    {"compound": "N.N.N.N.N.N.N.N.N.N.N.N.N.N.[Cl-].[Cl-].[Cl-].[Cl-].[Cl-].[Cl-].[O-2].[O-2].[Ru+3].[Ru+3].[Ru+4]", "note": "[ruthenium red]", "values": [
      {"measurement": "formation of FCA", "setting": "[4]; pretreatment with 200 μM ruthenium red", "value": "abolished"}
    ]},
    {"compound": "C/C=C(/C)C(=O)O[C@H]1C(C)=C2[C@H]([C@@H]1OC(=O)CCCCCCC)[C@@](C)(OC(C)=O)C[C@H](OC(=O)CCC)[C@@]1(O)[C@H]2OC(=O)[C@@]1(C)O", "note": "[thapsigargin]", "values": [
      {"measurement": "generation of the FCA fragment", "setting": "[4]; pretreatment with 0.1 μM thapsigargin, lysates after 24 hours", "value": "abolished"}
    ]}
  ]
}
